Experimental data from paper PMC8111499, “GW117: A novel serotonin (5‐HT2C) receptor antagonist and melatonin (MT1/MT2) receptor agonist with potential antidepressant‐like activity in rodents” (CNS Neuroscience & Therapeutics, 2021).

Assays:
[1] = system: rats; assay: Forced swimming test in rats; format: in vivo, Sprague Dawley (SD) rats; conditions: single dose p.o., 10, 20, or 40 mg/kg, vs. vehicle
Protocol: The forced swimming test (FST) was conducted as described earlier. ^30 Eighty naive rats were randomized into eight treatment groups (n = 9‐12/group). All rats received a single drug administration (p.o.). The procedure consisted of two sessions, to be specific, a pre‐test session and a test session. A cylindrical container (diameter, 20 cm; height, 40 cm; including 30 cm of water and kept at 25℃) was used. During the pre‐test phase, rats were required to perform forced swimming for 15 min. The test session was performed 24 h later, put the rats in the same cylindrical container for 5 min and immobility duration over 5 min recorded. […] Rats were considered immobile when they entered a floating posture, specifically, immobile, passive, and with their heads above water.

[2] = system: CUS rats; assay: Open field test in chronic unpredictable stress (CUS) rats; format: in vivo; conditions: CUS rats, 5, 10, 20, 40 mg/kg p.o., 4‐week stress, vs. CUS‐vehicle
Protocol: (§1) In order to further examine the antidepressant effects of GW117, chronic unpredictable stress (CUS) model was utilized; the methods were as described before. ^29 , ^31 After 1 week of training, rats underwent sucrose training of 48 h. After training, a sucrose baseline test was performed. […] Gastric gavage was given 1 h before the stress (08:00–09:00). Except for the non‐stressed group, all rats were stimulated by a series of stressors. stress methods included the following: fast on food and water (24 h), moisture cage (150 g sawdust bedding in 200 ml water), overnight illumination, low‐intensity strobe illumination (100 flashes/min), forced swimming (5 min at 10℃), white noise (110 dB), tail pinch (1 cm from tail root, 6 min), 45℃ cage tilt, and restraint (1–2 h). Stressors need to be used continuously and randomly. Non‐stressed rats received free food and water, but were required to fast for 14 h before sucrose preference test. After 4 weeks of stress, the sucrose preference test (SPT) (on day 25), open field test (OFT) (on day 28), and novelty‐suppressed feeding (NSF) test (on day 29) were carried out.
The OFT device was a chamber (diameter, 122 cm; height, 45 cm) that was grouped equally into 16 sections. 24 h after the last administration, rats were put into the center of the chamber and the numbers of crossings and readings were recorded in 5 min.

[3] = system: rats; assay: Locomotor activity in rats; format: in vivo; conditions: for Locomotor activity, Crossing number / Locomotor activity, Rearing number: Rats, mean ± S.E.M.
Protocol: In order to confirm whether GW117 has an antidepressant activity, we used spontaneous activities in mice and rats to determine whether GW117 affects the central system. 64 ICR mice were randomly allocation to five therapy groups ([…]): control group, 5 mg/kg GW117, 10 mg/kg GW117, 20 mg/kg GW117, and 40 mg/kg GW117. All rats and mice received one administration (p.o.). After sixty minutes of gavage administration, each mouse or rat was located in the corner of an open field chamber (36 × 29 × 23 cm for mice; 76 × 76 × 46 cm for rats) to adapt to 5 min. The numbers of crossings and rearings were recorded during the subsequent 5 min.

[4] = system: CUS rats; assay: Sucrose preference test in CUS rats; format: in vivo; conditions: chronic, 5, 10, 20, and 40 mg/kg, vs. CUS‐vehicle
Protocol: as §1
The SPT was performed as previously reported. ^32 Rats were trained to administer sucrose water solution after 48 h fasting and water deprivation. […] Sucrose and water intake were measured, and sucrose preference was calculated: SP =sucrose intake ×100%/ (sucrose intake +water intake). […]

[5] = molecular target: T1, MT2 receptor (Homo sapiens, UniProt P49286); assay: [35S]‐GTPγS binding assay, MT2; format: biochemical
T1 construct: purchased Perkin‐Elmer ES‐621
T1 sequence (P49286 1-362): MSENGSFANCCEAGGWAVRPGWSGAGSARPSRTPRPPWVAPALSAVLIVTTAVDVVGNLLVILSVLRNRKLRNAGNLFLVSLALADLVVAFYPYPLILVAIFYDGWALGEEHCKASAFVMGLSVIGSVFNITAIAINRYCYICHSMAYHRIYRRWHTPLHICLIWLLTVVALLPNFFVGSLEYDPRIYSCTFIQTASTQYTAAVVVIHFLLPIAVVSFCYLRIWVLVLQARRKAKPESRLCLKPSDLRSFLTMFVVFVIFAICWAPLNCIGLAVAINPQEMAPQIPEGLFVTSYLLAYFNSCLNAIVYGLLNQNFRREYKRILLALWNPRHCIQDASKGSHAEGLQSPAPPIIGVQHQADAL
Protocol: This experiment was mentioned earlier. ^27 In short, HEK293 cell membrane stably expressing human 5‐HT2C receptors or rat hippocampal tissue membrane or MT1/MT2 receptors was re‐suspended in buffer (50 mmol/L Tris, 100 mmol/L NaCl, 5 mmol/L MgCl2·6H2O, 0.1 mmol/L EDTA‐Na2·6H2O, 0.2 mmol/L EGTA, pH 7.4) and incubated with the test compound (100 μM GDP, 0.2 nM [^35S]‐GTP, or [^3H]PIP) for 60 min at 28℃. At the end of the experiment, Whatman GF/C filters pre‐soaked with distilled water were used for rapid filtration followed by washing with 5 ml of ice‐cold Tris buffer. Determination of non‐specific binding in the presence of GTPγS and radioactivity was measured by liquid scintillation counting. Calculation of the concentration produces a half‐maximal effect (EC50) and the maximal increase above the baseline value.

[6] = previous study; cited from earlier work

SMILES: [2H]C([2H])([2H])Oc1cc2c(CCNC(C)=O)cccc2cc1Cl [GW117]
- immobility time in FST [1]: markedly reduced the immobility time
- number of rearings and crossings in open field [2]: markedly add to the number of rearings and crossings
- Locomotor activity, Crossing number ([3]; 5 mg/kg p.o.): 70.3 ± 5.1
- Locomotor activity, Rearing number ([3]; 5 mg/kg p.o.): 14.2 ± 1.4
- Locomotor activity, Crossing number ([3]; 10 mg/kg p.o.): 71.3 ± 6.8
- Locomotor activity, Rearing number ([3]; 10 mg/kg p.o.): 14.9 ± 1.5
- Locomotor activity, Crossing number ([3]; 20 mg/kg p.o.): 60.9 ± 4.4
- Locomotor activity, Rearing number ([3]; 20 mg/kg p.o.): 13.8 ± 1.3
- Locomotor activity, Crossing number ([3]; 40 mg/kg p.o.): 63.5 ± 4.6
- Locomotor activity, Rearing number ([3]; 40 mg/kg p.o.): 12.8 ± 1.3
- effect on number of crossings and rearings in the spontaneous activity test ([3]; rats, 5, 10, 20, or 40 mg/kg by gavage): had no effect
- sucrose preference [4]: markedly increased sucrose preference
- character of effect on MT2 receptor ([5]; [35S]‐GTPγS binding): full agonist
- Emax ([5]; [35S]‐GTPγS binding, read-out: maximal increase over basal binding (% Emax), MT2 receptor): 103 ± 4.56%
- EC50 ([5]; read-out: EC50 of stimulation of specific [35S]‐GTPγS binding, MT2 receptor): 1.54 nM
- toxic effects compared with agomelatine [6]: lower toxic effects
